The source of these data is ChEMBL document CHEMBL1125565, “Hypoxia-selective antitumor agents. 6. 4-(Alkylamino)nitroquinolines: a new class of hypoxia-selective cytotoxins” (J Med Chem, 1992).

Series [1] in a line: physchem. The note with it: aqueous solution.
Description: (§1) Compound was evaluated for quinoline pKa value in aqueous solution at 25 degree Celsius by spectrophotometry
In series [2] the test system is CHO-AA8. Put plainly: cells. The note with it: Cricetulus griseus, CHO-AA8, 18 h.
Description: Growth inhibition in CHO subline AA8 cells exposed for 18 hr under aerobic(air) conditions
The subject of series [3] is Nucleic Acid.
Description: (§2) Inhibitory concentration against DNA-bound ethidium bromide
Series [4] can be described thus: physchem. The note with it: aqueous solution. This is another data set of the same source.
Description: as §1
The subject of series [5] is CHO-AA8. Put plainly: cells. The settings on record: Cricetulus griseus, CHO-AA8, 18 h. The source holds these as a separate data set.
Description: Growth inhibitory activity against CHO subline AA8 cells exposed for 18 hr under aerobic conditions
The test system of series [6] is Nucleic Acid. The source holds these as a separate data set.
Description: as §2

Broadly, the pKa is the negative logarithm of the acid dissociation constant. A lower pKa goes with a stronger acid or weaker base. One may read the IC50 as the concentration that inhibits the measured activity by half. Read a high IC50 as a need for much substance. Regarding `Cc1ccc2nccc(NCCCN(C)C)c2c1[N+](=O)[O-]`, the pKa in series [1] was found to be 6.15. The same molecule registered an IC50 in series [2] of 170 µM. This molecule yielded a C50 in series [3] of 3.1 µM.

Turning to `CN(C)CCCNc1ccnc2c([N+](=O)[O-])cccc12`, the pKa in series [1] came to 6.91. The midpoint of inhibition in series [2], the IC50, lay at 93 µM. The same molecule came in with a C50 in series [3] of 1.2 µM.

In series [2], `CN(C)CCCNc1c([N+](=O)[O-])cnc2ccccc12` returned an IC50 of 34 µM. In series [3], this molecule showed a C50 of 5 µM. Also, the pKa in series [4] amounted to 4.43.

`Cc1c([N+](=O)[O-])ccc2c(NCCCN(C)C)ccnc12`: the pKa in series [1] amounted to 6.71. In series [2], inhibition was half-maximal at 21 µM (IC50). For the same molecule, the C50 in series [3] was 2.9 µM.

On to `Cc1ccc([N+](=O)[O-])c2c(NCCCN(C)C)ccnc12`, for which the pKa in series [1] worked out at 6.84. Further, the midpoint of inhibition in series [2], the IC50, lay at 29 µM. This molecule also came in with a C50 in series [3] of 3 µM.

The molecule `CNc1ccc([N+](=O)[O-])c2c(NCCCN(C)C)ccnc12` displayed a pKa in series [1] of 4.22. In series [5], the midpoint of inhibition, the IC50, lay at 98 µM.

`Cc1cc(NCCCN(C)C)c2c([N+](=O)[O-])cccc2n1` gave a pKa in series [1] of 6.41. For the same molecule, 6.6 µM corresponded to half-maximal inhibition in series [2] (IC50). Moreover, the C50 in series [3] came to 1.1 µM.

`COc1ccc([N+](=O)[O-])c2c(NCCCN(C)C)ccnc12`: the pKa in series [1] came to 6.76. Further, the IC50 in series [2] was 6.8 µM.

With `CN(C)CCCNc1ccnc2ccccc12`, in series [2], the 50% inhibitory concentration (IC50) turned out to be 125 µM. Also, in series [3], the C50 came out at 4.6 µM. In series [4], this molecule had a pKa of 8.85.

Molecule `CN(C)CCCCNc1ccnc2cccc([N+](=O)[O-])c12` gave a pKa in series [1] of 6.71. The molecule further showed an IC50 in series [2] of 9 µM. Moreover, in series [3], the C50 amounted to 3.1 µM.

As to `COCC(O)Cn1ccnc1[N+](=O)[O-]` (configuration not stated) [MISONIDAZOLE], in series [2], the half-inhibitory concentration (IC50) was found to be 12100 µM.

As to `Cc1cc2nccc(NCCCN(C)C)c2cc1[N+](=O)[O-]`, the pKa in series [1] was determined as 7.38. Also, the IC50 in series [2] is 28 µM. Also, in series [3], the C50 worked out at 2.3 µM.

For the molecule `CN(C)CCCNc1ccnc2cccc([N+](=O)[O-])c12`, it took 12.4 µM to reach half-maximal inhibition in series [2] (IC50). The C50 in series [3] amounted to 1.1 µM. The same molecule had a pKa in series [4] of 6.39.

The molecule `Cc1ccc2c(NCCCN(C)C)ccnc2c1[N+](=O)[O-]` gave a pKa in series [1] of 5.51. Moreover, it took 253 µM to reach half-maximal inhibition in series [2] (IC50). This molecule registered a C50 in series [3] of 4.6 µM.

The molecule `Cc1cnc2cccc([N+](=O)[O-])c2c1NCCCN(C)C` gave a pKa in series [1] of 6.01. This molecule came in with an IC50 in series [2] of 33 µM. In addition, the C50 in series [3] stood at 1 µM.

In series [5], `CN(C)CCCNc1c2ccccc2nc2cccc([N+](=O)[O-])c12` [NITRACRINE] registered a concentration for half-maximal inhibition (IC50) of 0.024 µM.

For `CN(C)CCCNc1ncnc2cccc([N+](=O)[O-])c12`, the pKa in series [1] came to 4.05. The molecule also displayed an IC50 in series [2] of 82 µM. Moreover, the C50 in series [3] turned out to be 4.3 µM.

As for `CN(C)CCNc1ccnc2cccc([N+](=O)[O-])c12`, the pKa in series [1] amounted to 5.77. For the same molecule, in series [2], the IC50 turned out to be 20.9 µM. The molecule also returned a C50 in series [3] of 1.5 µM.

`CN(C)CCCNc1cc[n+](C)c2cccc([N+](=O)[O-])c12`: the C50 in series [6] came to 3.6 µM. For the same molecule, the IC50 in series [5] was 5.8 µM.

`CN(C)CCCNc1ccnc2cc([N+](=O)[O-])ccc12` displayed a 50% inhibitory concentration (IC50) in series [2] of 46 µM. The C50 in series [3] was 0.9 µM. The pKa in series [4] turned out to be 6.77.

`CN(C)CCN(C)c1ccnc2cccc([N+](=O)[O-])c12` showed a pKa in series [1] of 4.86. The molecule further yielded an IC50 in series [2] of 95 µM. Besides, in series [3], the C50 came to 3.9 µM.

As to `Cc1nc2ccccc2c(NCCCN(C)C)c1[N+](=O)[O-]`, the pKa in series [1] amounted to 5.35. In series [2], this molecule had an IC50 of 226 µM. In series [3], the C50 is 8.6 µM.

`CN(C)CCCNc1ccnc2ccc([N+](=O)[O-])cc12` had an IC50 in series [2] of 34 µM. In series [3], this molecule yielded a C50 of 1 µM. In series [4], the pKa was determined as 6.99.
